Consider twelve molecules from US10231453B2, “5-substituted imidazole derivatives” (BAYER CROPSCIENCE AKTIENGESELLSCHAFT, priority 2015, dated 2019).

System in the first data set: not listed separately
Briefly: Measurement of LogP values by HPLC on reversed phase columns (EEC directive 79/831 Annex V.A8). The class given is physicochemical. Conditions: method [a]: LC-UV, acidic range, 0.1% formic acid in water and acetonitrile as eluent; Table 1. As to the method:
Measurement of Log P values was performed as outlined above.
The chromatographic logP is a lipophilicity value derived from retention on a column. Consider `CC(C)C(O)(Cc1ccc(Cl)cc1F)Cn1cncc1C#N` (centres unmarked) [Example I-118], for which the chromatographic logP was 2.91.
`OC(Cc1ccc(F)c(F)c1)(Cn1cncc1Cl)C1(Cl)CC1` (centres unmarked) [Example I-110] returned a chromatographic logP of 2.23.
The same measure, in the same setting: as for `CC(C)C(O)(Cc1ccccc1F)Cn1cncc1C#N` (centres unmarked) [Example I-139], the figure is 2.4; as for `N#Cc1cncn1CC(O)(Cc1ccnc(Cl)c1)C1(Cl)CC1` (centres unmarked) [Example I-62], 2.04.
`CC(C)C(O)(Cc1cccc(F)c1F)Cn1cncc1C#N` (centres unmarked) [Example I-149] came in with a chromatographic logP of 2.47.

In a further data set the test system is Alternaria brassicae. Kind of data set: In vivo preventive test on Alternaria brassicae (leaf spot on radish), Examples A and R1. The note with it: Alternaria brassicae, 144 h, Example R1, rate of application 100 ppm, read-out: Efficacy in %.
Turning to `N#Cc1cn(CC(O)(Cc2ccccc2F)C2(Cl)CC2)cn1` (centres unmarked) [drawing 68, reference compound], the pest or weed control at 100 ppm turned out to be 0%.

The data set is the same for the next values; noted with them: Alternaria brassicae, 144 h, Example R1, rate of application 500 ppm, read-out: Efficacy in %.
On to `N#Cc1cn(CC(O)(Cc2ccccc2F)C2(Cl)CC2)cn1` (centres unmarked) [drawing 68, reference compound], for which the pest or weed control at 500 ppm amounted to 0%.

The test system of the next data set is Botrytis cinerea. Kind of data set: In vivo preventive test on Botrytis cinerea (grey mould) on gherkin, Examples B, Q1 and R2. Conditions: Botrytis cinerea, 500 ppm of active ingredient, preventive spray, evaluated 4 to 5 days after inoculation, read-out: efficacy.
Regarding `OC(Cc1ccc(Cl)cc1)(Cn1cncc1Cl)C1(Cl)CC1` (centres unmarked) [Example I-77], the pest or weed control at 500 ppm was 90 to 100%.
Consider `Cc1ccc(CC(O)(Cn2cncc2Cl)C2(Cl)CC2)cc1` (centres unmarked) [Example I-76], for which the pest or weed control at 500 ppm lay in the range of 90 to 100%.
For `CC(C)C(O)(Cc1ccc(Cl)cc1F)Cn1cncc1C#N` (centres unmarked) [Example I-118], the pest or weed control at 500 ppm was in the range of 90 to 100%.
Still for that read-out and setting: under `OC(Cc1ccccc1I)(Cn1cncc1Cl)C1(Cl)CC1` (centres unmarked) [Example I-167] stands 90 to 100%; under `N#Cc1cncn1CC(O)(Cc1cccc(Br)c1)C1(Cl)CC1` (centres unmarked) [Example I-45], 80 to 89%.
Turning to `OC(Cc1ccc(F)c(F)c1)(Cn1cncc1Cl)C1(Cl)CC1` (centres unmarked) [Example I-110], the pest or weed control at 500 ppm fell in the range of 90 to 100%.
On to `CC(C)C(O)(Cc1ccccc1F)Cn1cncc1C#N` (centres unmarked) [Example I-139], for which the pest or weed control at 500 ppm lay within 90 to 100%.
Take `Cc1cccc(CC(O)(Cn2cncc2Cl)C2(Cl)CC2)c1` (centres unmarked) [Example I-73]: the pest or weed control at 500 ppm lay in the range of 90 to 100%.
Regarding `CC(C)C(O)(Cc1cccc(F)c1F)Cn1cncc1C#N` (centres unmarked) [Example I-149], the pest or weed control at 500 ppm lay in the range of 70 to 79%.

The test system of the next data set is Puccinia recondita. Kind of data set: In vivo preventive test on Puccinia recondita (brown rust on wheat), Examples C and R3. Conditions: Puccinia recondita, 264 h; 500 ppm of active ingredient; wheat, preventive spray, evaluated 11 days after inoculation; read-out: efficacy.
With `OC(Cc1ccc(Cl)cc1)(Cn1cncc1Cl)C1(Cl)CC1` (centres unmarked) [Example I-77], the pest or weed control at 500 ppm fell in the range of 80 to 89%.
`Cc1ccc(CC(O)(Cn2cncc2Cl)C2(Cl)CC2)cc1` (centres unmarked) [Example I-76]: the pest or weed control at 500 ppm was in the range of 90 to 100%.
On to `CC(C)C(O)(Cc1ccc(Cl)cc1F)Cn1cncc1C#N` (centres unmarked) [Example I-118], for which the pest or weed control at 500 ppm was 90 to 100%.
As for `N#Cc1cncn1CC(O)(Cc1ccccc1F)C1CC1` (centres unmarked) [Example I-136], the pest or weed control at 500 ppm is 90 to 100%.
Still for that read-out and setting: as for `OC(Cc1ccccc1I)(Cn1cncc1Cl)C1(Cl)CC1` (centres unmarked) [Example I-167], the figure is 80 to 89%.
`N#Cc1cncn1CC(O)(Cc1cccc(Br)c1)C1(Cl)CC1` (centres unmarked) [Example I-45]: the pest or weed control at 500 ppm fell in the range of 90 to 100%.
The same measure, in the same setting: under `OC(Cc1ccc(F)c(F)c1)(Cn1cncc1Cl)C1(Cl)CC1` (centres unmarked) [Example I-110] stands 80 to 89%.
`CC(C)C(O)(Cc1ccccc1F)Cn1cncc1C#N` (centres unmarked) [Example I-139]: the pest or weed control at 500 ppm is 90 to 100%.
Regarding `Cc1cccc(CC(O)(Cn2cncc2Cl)C2(Cl)CC2)c1` (centres unmarked) [Example I-73], the pest or weed control at 500 ppm is 80 to 89%.
For the molecule `N#Cc1cncn1CC(O)(Cc1ccnc(Cl)c1)C1(Cl)CC1` (centres unmarked) [Example I-62], the pest or weed control at 500 ppm was in the range of 90 to 100%.
As for `CC(C)C(O)(Cc1cccc(F)c1F)Cn1cncc1C#N` (centres unmarked) [Example I-149], the pest or weed control at 500 ppm lay within 90 to 100%.

The test system of another data set is Pyrenophora teres. Briefly: In vivo preventive test on Pyrenophora teres (net blotch on barley), Examples D, Q2 and R4. Conditions: Pyrenophora teres, 336 h, 500 ppm of active ingredient, preventive spray, evaluated 14 days after inoculation, read-out: efficacy.
In the case of `OC(Cc1ccc(Cl)cc1)(Cn1cncc1Cl)C1(Cl)CC1` (centres unmarked) [Example I-77], the pest or weed control at 500 ppm was 80 to 89%.
`Cc1ccc(CC(O)(Cn2cncc2Cl)C2(Cl)CC2)cc1` (centres unmarked) [Example I-76]: the pest or weed control at 500 ppm was 90 to 100%.
Take `CC(C)C(O)(Cc1ccc(Cl)cc1F)Cn1cncc1C#N` (centres unmarked) [Example I-118]: the pest or weed control at 500 ppm fell in the range of 70 to 79%.
Consider `OC(Cc1ccccc1I)(Cn1cncc1Cl)C1(Cl)CC1` (centres unmarked) [Example I-167], for which the pest or weed control at 500 ppm lay within 80 to 89%.
As for `N#Cc1cncn1CC(O)(Cc1cccc(Br)c1)C1(Cl)CC1` (centres unmarked) [Example I-45], the pest or weed control at 500 ppm fell in the range of 80 to 89%.
Still for that read-out and setting: under `OC(Cc1ccc(F)c(F)c1)(Cn1cncc1Cl)C1(Cl)CC1` (centres unmarked) [Example I-110] stands 90 to 100%; under `CC(C)C(O)(Cc1ccccc1F)Cn1cncc1C#N` (centres unmarked) [Example I-139], 70 to 79%.
Same read-out and setting: under `Cc1cccc(CC(O)(Cn2cncc2Cl)C2(Cl)CC2)c1` (centres unmarked) [Example I-73] stands 80 to 89%.
For `N#Cc1cncn1CC(O)(Cc1ccnc(Cl)c1)C1(Cl)CC1` (centres unmarked) [Example I-62], the pest or weed control at 500 ppm fell in the range of 90 to 100%.

The next data set deals with Septoria tritici. Briefly: In vivo preventive test on Septoria tritici (leaf spot on wheat), Examples E, Q3 and R5. The note with it: Zymoseptoria tritici, 576 h, 500 ppm of active ingredient; wheat, preventive spray, evaluated 24 days after inoculation; read-out: efficacy.
On to `OC(Cc1ccc(Cl)cc1)(Cn1cncc1Cl)C1(Cl)CC1` (centres unmarked) [Example I-77], for which the pest or weed control at 500 ppm is 90 to 100%.
Consider `Cc1ccc(CC(O)(Cn2cncc2Cl)C2(Cl)CC2)cc1` (centres unmarked) [Example I-76], for which the pest or weed control at 500 ppm lay within 90 to 100%.
For `CC(C)C(O)(Cc1ccc(Cl)cc1F)Cn1cncc1C#N` (centres unmarked) [Example I-118], the pest or weed control at 500 ppm was in the range of 70 to 79%.
On to `N#Cc1cncn1CC(O)(Cc1ccccc1F)C1CC1` (centres unmarked) [Example I-136], for which the pest or weed control at 500 ppm is 90 to 100%.
For `N#Cc1cncn1CC(O)(Cc1cccc(Br)c1)C1(Cl)CC1` (centres unmarked) [Example I-45], the pest or weed control at 500 ppm is 90 to 100%.
For `OC(Cc1ccc(F)c(F)c1)(Cn1cncc1Cl)C1(Cl)CC1` (centres unmarked) [Example I-110], the pest or weed control at 500 ppm lay in the range of 80 to 89%.
For `CC(C)C(O)(Cc1ccccc1F)Cn1cncc1C#N` (centres unmarked) [Example I-139], the pest or weed control at 500 ppm lay within 90 to 100%.
For the molecule `Cc1cccc(CC(O)(Cn2cncc2Cl)C2(Cl)CC2)c1` (centres unmarked) [Example I-73], the pest or weed control at 500 ppm is 80 to 89%.
For `N#Cc1cncn1CC(O)(Cc1ccnc(Cl)c1)C1(Cl)CC1` (centres unmarked) [Example I-62], the pest or weed control at 500 ppm was in the range of 90 to 100%.
For the molecule `CC(C)C(O)(Cc1cccc(F)c1F)Cn1cncc1C#N` (centres unmarked) [Example I-149], the pest or weed control at 500 ppm was 80 to 89%.

Another data set concerns Sphaerotheca fuliginea. Briefly: In vivo preventive test on Sphaerotheca fuliginea (powdery mildew on cucurbits), Examples F and R6. The note with it: Podosphaera fuliginea, 360 h; 500 ppm of active ingredient; gherkin, preventive spray, evaluated 15 days after inoculation; read-out: efficacy.
On to `OC(Cc1ccc(Cl)cc1)(Cn1cncc1Cl)C1(Cl)CC1` (centres unmarked) [Example I-77], for which the pest or weed control at 500 ppm is 90 to 100%.
Consider `Cc1ccc(CC(O)(Cn2cncc2Cl)C2(Cl)CC2)cc1` (centres unmarked) [Example I-76], for which the pest or weed control at 500 ppm lay in the range of 90 to 100%.
In the case of `CC(C)C(O)(Cc1ccc(Cl)cc1F)Cn1cncc1C#N` (centres unmarked) [Example I-118], the pest or weed control at 500 ppm lay in the range of 90 to 100%.
Still for that read-out and setting: under `N#Cc1cncn1CC(O)(Cc1ccccc1F)C1CC1` (centres unmarked) [Example I-136] stands 90 to 100%.
On the same count and under the same terms, as for `OC(Cc1ccccc1I)(Cn1cncc1Cl)C1(Cl)CC1` (centres unmarked) [Example I-167], the figure is 90 to 100%; as for `N#Cc1cncn1CC(O)(Cc1cccc(Br)c1)C1(Cl)CC1` (centres unmarked) [Example I-45], 90 to 100%.
In the case of `OC(Cc1ccc(F)c(F)c1)(Cn1cncc1Cl)C1(Cl)CC1` (centres unmarked) [Example I-110], the pest or weed control at 500 ppm lay in the range of 90 to 100%.
On to `CC(C)C(O)(Cc1ccccc1F)Cn1cncc1C#N` (centres unmarked) [Example I-139], for which the pest or weed control at 500 ppm was 90 to 100%.
For `Cc1cccc(CC(O)(Cn2cncc2Cl)C2(Cl)CC2)c1` (centres unmarked) [Example I-73], the pest or weed control at 500 ppm fell in the range of 90 to 100%.
Consider `N#Cc1cncn1CC(O)(Cc1ccnc(Cl)c1)C1(Cl)CC1` (centres unmarked) [Example I-62], for which the pest or weed control at 500 ppm is 90 to 100%.
As to `CC(C)C(O)(Cc1cccc(F)c1F)Cn1cncc1C#N` (centres unmarked) [Example I-149], the pest or weed control at 500 ppm was in the range of 90 to 100%.

The test system of the next data set is Uromyces appendiculatus. Briefly: In vivo preventive test on Uromyces appendiculatus (bean rust), Examples G and R7. The note with it: 264 h, 500 ppm of active ingredient, bean, preventive spray, evaluated 11 days after inoculation, read-out: efficacy.
Take `OC(Cc1ccc(Cl)cc1)(Cn1cncc1Cl)C1(Cl)CC1` (centres unmarked) [Example I-77]: the pest or weed control at 500 ppm lay within 90 to 100%.
For the molecule `CC(C)C(O)(Cc1ccc(Cl)cc1F)Cn1cncc1C#N` (centres unmarked) [Example I-118], the pest or weed control at 500 ppm is 90 to 100%.
Same read-out and setting: under `N#Cc1cncn1CC(O)(Cc1ccccc1F)C1CC1` (centres unmarked) [Example I-136] stands 90 to 100%.
Turning to `OC(Cc1ccccc1I)(Cn1cncc1Cl)C1(Cl)CC1` (centres unmarked) [Example I-167], the pest or weed control at 500 ppm lay within 90 to 100%.
Take `N#Cc1cncn1CC(O)(Cc1cccc(Br)c1)C1(Cl)CC1` (centres unmarked) [Example I-45]: the pest or weed control at 500 ppm was in the range of 90 to 100%.
As for `OC(Cc1ccc(F)c(F)c1)(Cn1cncc1Cl)C1(Cl)CC1` (centres unmarked) [Example I-110], the pest or weed control at 500 ppm was in the range of 90 to 100%.
With `CC(C)C(O)(Cc1ccccc1F)Cn1cncc1C#N` (centres unmarked) [Example I-139], the pest or weed control at 500 ppm is 90 to 100%.
Take `N#Cc1cncn1CC(O)(Cc1ccnc(Cl)c1)C1(Cl)CC1` (centres unmarked) [Example I-62]: the pest or weed control at 500 ppm lay within 90 to 100%.
As to `CC(C)C(O)(Cc1cccc(F)c1F)Cn1cncc1C#N` (centres unmarked) [Example I-149], the pest or weed control at 500 ppm fell in the range of 90 to 100%.

A further data set deals with Blumeria graminis fsp. hordei. Kind of data set: In vivo preventive Blumeria test (barley), Example K. The note with it: 168 h, 500 ppm of active ingredient, preventive spray, evaluated 7 days after inoculation, read-out: efficacy. The text has this: After the spray coating has been dried, the plants are dusted with spores of Blumeria graminis fsp. hordei.
Turning to `N#Cc1cncn1CC(O)(Cc1ccccc1F)C1CC1` (centres unmarked) [Example I-136], the pest or weed control at 500 ppm was 90 to 100%.
With `N#Cc1cncn1CC(O)(Cc1ccnc(Cl)c1)C1(Cl)CC1` (centres unmarked) [Example I-62], the pest or weed control at 500 ppm was 90 to 100%.
